Measured values as given in paper PMC12670426 (Journal of Medicinal Chemistry, 2025).
Where two headings read alike, the source gives them in different places.

Legend:
[1] = target: T1, human galectin-3C (Gal-3C, C-terminal CRD of galectin-3) (Homo sapiens, UniProt P17931); assay: Competitive fluorescence polarization assay, Gal-3C; assay type: binding
T1 construct: only the C-terminal domain was used (Gal-3C); 6xHis tag with TEV protease site (N, cleaved yes); made in house; host or cells: BL21 Escherichia coli (pET-15b)
T1 sequence (P17931 118-248 limits assumed): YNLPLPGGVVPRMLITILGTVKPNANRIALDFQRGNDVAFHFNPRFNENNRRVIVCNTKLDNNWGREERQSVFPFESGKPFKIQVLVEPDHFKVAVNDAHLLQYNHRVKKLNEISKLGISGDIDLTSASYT
Procedure, shortened: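 Competitive fluorescence polarization (anisotropy) with a fluorescent probe; full-length Gal-1 and C-terminal CRD construct of Gal-3. Read after 30–60 min incubation at 25 °C. Kd fitted with Wang's exact cubic competitive model, rmin/rmax fixed from direct binding.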

[2] = Plasma protein binding assay (rapid equilibrium dialysis), human plasma; assay type: in vitro ADME; details: fraction bound, read-out: plasma protein binding Fb human (converted)
Procedure: (§1) Test compound (10 μM) was incubated at 37 °C for 4 h with mouse, rat, or human plasma (Biowest) in the donor well of a rapid equilibrium dialysis plate (Thermo Fisher Scientific). PBS was placed in the acceptor well. To stop the assay, samples were collected from both wells, and an equal volume of plasma was added to the PBS sample, and vice versa. Proteins were then precipitated by adding three volumes of ice-cold methanol. Samples were mixed gently, kept at −20 °C for 30 min, and then stored at 4 °C overnight. The next day, the samples were centrifuged, and the supernatants were diluted with four volumes of 30% methanol in water. The samples were then analyzed using the Echo-MS system (SCIEX) with MRM transition monitoring, except for compound 3af, which was analyzed by LC–MS/MS as described in the plasma stability assay.

[3] = Plasma protein binding, summary across species; assay type: in vitro ADME; details: summary across human, mouse and rat plasma
Procedure: as §1

[4] = Kinetic solubility assay in PBS; assay type: physicochemical; details: aqueous buffer, kinetic from dmso stock; PBS at pH 7.4, 100 μM final, 2 h room temperature
Procedure: The solutions were incubated at room temperature for 2 h and filtered by centrifugation. Filtrates were diluted 100-fold with 50% acetonitrile in water and then analyzed on the Echo-MS system (SCIEX) using MRM transition monitoring, except for compound 3af, which was analyzed by LC–MS/MS as described in the plasma stability assay. Compound concentrations were quantified against calibration curves prepared in the identical matrix as the samples.

[5] = Cytotoxicity assay, HEK293; assay type: cell-based; details: human, HEK293 cells, viability dye, flow cytometry
Procedure: (§2) To evaluate in vitro cytotoxicity and support its potential application in inflammatory and fibrotic disease models, the following panel of cell lines, representing the relevant biological systems, was used: HEK293, HepG2, THP1, Jurkat E6.1, and LX2. HEK293, HepG2, and Jurkat E6.1 cells were seeded at 400,000 cells/mL, THP1 cells at 500,000 cells/mL, and LX2 cells at 200,000 cells/mL in 96-well plates (cell culture-treated, VWR) in 100 μL/well. Cells were treated with the tested compounds in a serial dilution (300, 100, 33.3, 11.1, and 3.7 μM) for 24 h. Untreated cells served as negative controls to establish the baseline viability threshold. Cell viability was assessed using a viability dye (Zombie Violet Fixable Viability Kit, BioLegend) following the manufacturer’s instructions and analyzed by flow cytometry (see below).
(§3) Cells or beads from screening assays prepared for flow cytometry were analyzed by the CytoFlex S instrument (Beckman Coulter). Data acquisition was performed using CytExpert software (v2.5, Beckman Coulter). Debris was excluded by forward and side scatter gating, followed by doublet exclusion. Data were analyzed using FlowJo software (v10, BD Biosciences).

[6] = Cytotoxicity assay, HepG2; assay type: cell-based; details: human, HepG2 cells, viability dye, flow cytometry
Procedure: as §2, §3

[7] = tested on: LPS-stimulated macrophage-like THP1 cells (TNFα secretion); assay: Anti-inflammatory potential: TNFα secretion in LPS-stimulated PMA-differentiated THP1 cells; assay type: cell-based, human; details: (+)PMA THP1, 1 μg/mL LPS, 24 h, up to 300 μM
Procedure: Cells were differentiated overnight into macrophage-like phenotypes by treatment with 10 ng/mL PMA and subsequently stimulated with 1 μg/mL lipopolysaccharide (LPS; Invitrogen, Thermo Fisher Scientific) to induce a proinflammatory response. […] After 24 h of LPS and compound exposure, cell culture supernatants were collected and analyzed for TNFα levels using a bead-based multiplex immunoassay (ProcartaPlex Human Basic Kit and TNFα Human ProcartaPlex Simplex Kit, both Invitrogen, Thermo Fisher Scientific). Flow cytometry readout was used as previously described. TNFα concentrations were calculated using a standard curve generated in GraphPad Prism 10 (GraphPad Software, San Diego, CA). Cells or beads from screening assays prepared for flow cytometry were analyzed by the CytoFlex S instrument (Beckman Coulter). Data acquisition was performed using CytExpert software (v2.5, Beckman Coulter). Debris was excluded by forward and side scatter gating, followed by doublet exclusion. Data were analyzed using FlowJo software (v10, BD Biosciences).

CC(=O)N(c1cc(C(=O)O)cc2[nH]ccc12)[C@@H]1O[C@H](CO)[C@@H](S[C@@H]2O[C@H](CO)[C@H](O)[C@H](n3cc(-c4cccc(F)c4)nn3)[C@H]2O)[C@H](O)[C@H]1O [Compound 11, N-[4-S-(3-Deoxy-3-(4-(3-fluorophenyl)-1H-1,2,3-triazol-1-yl)-β-D-galactopyranosyl)-4-thio-β-D-glucopyranosyl]-N-(6-carboxy-1H-indol-4-yl)acetamide]
IC50 ([1]; CSV supplement, unrounded mean, read-out: Gal3C_IC50_mean_uM): 57.7 nM
Kd ([1]; CSV supplement, unrounded mean, read-out: Gal3C_Kd_mean_uM): 5.71 nM
Kd ([1]; competitive fluorescence polarization, mean ± SD, read-out: Kd Gal-3C): 5.7 ± 2 nM
IC50 ([1]; four-parameter logistic model, mean ± SD, read-out: IC50 Gal-3C): 58 ± 10 nM
fraction unbound at 4 h, 10 μM [2]: 0.55
fraction unbound at 4 h, 10 μM [3]: 0.1 to 0.78
solubility kinetic at 2 h [4]: > 100 µM
CC50 at 24 h [5]: > 300000 nM
CC50 at 24 h [6]: > 300000 nM
LPS-induced TNFα secretion [7]: no suppression
